{"source": "patent US20090239901A1", "about": "“METHOD AND COMPOSITIONS FOR TREATMENT OF CEREBRAL MALARIA” (priority 2008, published 2009)", "key": {"[1]": {"test_system": "TNF", "assay": "TNF expression", "from_the_text": "(§1) All of these events were reported to be important in the development of Cerebral Malaria (CM)."}, "[2]": {"test_system": "ICAM-1", "assay": "TNFα-induced production of ICAM-1 in human brain microvascular endothelial cells", "assay_type": "cell-based", "settings": "TNF-treated human brain microvascular endothelial cells (MVECs)", "from_the_text": "as §1"}, "[3]": {"test_system": "VCAM-1", "assay": "TNFα-induced production of VCAM-1 in human brain microvascular endothelial cells", "assay_type": "cell-based", "settings": "TNF-treated human brain microvascular endothelial cells (MVECs)", "from_the_text": "as §1"}, "[4]": {"test_system": "hippocampal neurogenesis", "assay": "hippocampal neurogenesis in vivo", "settings": "1 week treatment, 2H2O label"}, "[5]": {"test_system": "microglia", "assay": "LPS-induced microglial inflammation in vivo", "settings": "LPS 1 mg/kg i.p. on days 1, 3 and 5", "experimental": "Animals were treated with either vehicle and 8% 2H2O label for 1 week. LPS (1 mg/kg, i.p) was injected on days 1, 3 and 5 of drug treatment and label. Microglia were isolated from brain and sorted by flow cytometry as CD11b+, F4/80+ cells. DNA was isolated from sorted microglia cells, hydrolyzed and derivatized for GC/MS analyses."}, "[6]": {"test_system": "more than 60 receptors and enzymes"}, "[7]": {"test_system": "Janus kinase 2 (Jak2)", "assay": "attenuation of Compound A effects by Jak2 inhibitor", "settings": "both in vitro and in vivo", "from_the_text": "as §1"}, "[8]": {"test_system": "sepsis-induced death", "assay": "sepsis-induced death in rodents (survival study)", "assay_type": "in vivo", "experimental": "FIG. 5 is a graph showing results of a study that indicates α7 agonists can prevent sepsis-induced death in rodents. Survival was monitored daily from day 0 to day 6. In the vehicle control group there was a 13% survival by day 6. In the animals treated with 0.003 mg/kg Compound B, there was a 13% survival by day (NS, p=0.360). In the animals treated with 0.03 mg/kg Compound B, there was also a 13% survival by day (NS, p=0.528). […] Survival was 47% in this group, a significant improvement in survival (p=0.005)."}}, "data": [{"molecule": "Cc1ccc(C(=O)N[C@@H]2C3CCN(CC3)[C@H]2Cc2cccnc2)s1", "note": "[Compound A, (2S,3R)-N-(2-((3-pyridinyl)methyl)-1-azabicyclo[2.2.2]oct-3-yl)-5-methylthiophene-2-carboxamide]", "values": [{"measurement": "TNF expression", "setting": "[1]", "value": "significantly inhibits TNF expression"}, {"measurement": "levels of ICAM-1 expression", "setting": "[2]", "value": "decreases the levels of ICAM-1 and VCAM-1 expression"}, {"measurement": "levels of VCAM-1 expression", "setting": "[3]", "value": "decreases the levels of ICAM-1 and VCAM-1 expression"}, {"measurement": "hippocampal neurogenesis", "setting": "[4]", "value": "promotes hippocampal neurogenesis in vivo"}, {"measurement": "microglial inflammation", "setting": "[5]", "value": "prevents microglial inflammation in vivo"}, {"measurement": "separation with other targets", "setting": "[6]", "value": "100-1000"}]}, {"molecule": "N#C/C(=C/c1ccc(O)c(O)c1)C(=O)NCc1ccccc1", "note": "[AG-490]", "values": [{"measurement": "effect on the effects of Compound A", "setting": "[7]", "value": "attenuates the effects of Compound A"}]}, {"molecule": "O=C(N[C@@H]1C2CCN(CC2)[C@H]1Cc1cccnc1)c1cc2ccccc2o1", "note": "[Compound B, (2S,3R)-N-(2-((3-pyridinyl)methyl)-1-azabicyclo[2.2.2]oct-3-yl)benzofuran-2-carboxamide]", "values": [{"measurement": "survival by day 6", "setting": "[8]; 0.003 mg/kg, NS, p=0.360, vehicle control 13%", "value": 13, "unit": "%"}, {"measurement": "survival by day 6", "setting": "[8]; 0.03 mg/kg, NS, p=0.528, vehicle control 13%", "value": 13, "unit": "%"}, {"measurement": "survival by day 6", "setting": "[8]; 0.3 mg/kg, p=0.005, vehicle control 13%", "value": 47, "unit": "%"}]}]}
